Key:
[1] = target: human D3 dopaminergic receptor (Homo sapiens, UniProt P35462); assay: Affinity for human D3 receptors stably expressed in CHO cells, [3H]-spiperone competition; assay type: binding; settings: CHO cell membranes, 0.5 nM [3H]-spiperone, 1 hour at 30° C.; read-out: Affinity (pKi) hD3 (converted)
Experimental: (§1) Determination of Affinity for Human D3, D2S and D2L Receptors Stably Expressed in CHO Cells
(§2) The various cell lines are cultured to confluence and then the cells are detached and are homogenised using a Polytron in a Tris-HCl buffer (50 mM, pH 7.4) containing 5 mM MgCl2. The cell debris is then centrifuged (15 minutes at 4° C.) and the sediment is taken up in an appropriate volume of HEPES buffer (20 mM) containing 150 mM NaCl and is frozen at −80° C. On the day of the experiment, the membranes are taken up in incubation buffer containing 50 mM Tris (pH 7.4), 120 mM NaCl, 5 mM KCl, 2 mM CaCl2 and 5 mM MgCl2. […] The non-specific binding is determined using 10 μM raclopride. At the end of the incubation period, the samples are filtered through Unifilter GF/B type filters pre-treated with PEI (0.1%) and washed several times with Tris-HCl filtration buffer (50 mM, pH 7.4) containing 120 mM NaCl. The radioactivity retained on the filters is counted after addition of scintillation liquid, with the aid of a scintillation counter. […] The results are expressed in terms of pKi=−log Ki.

[2] = target: human D2L dopaminergic receptor (Homo sapiens, UniProt P14416); assay: Affinity for human D2L receptors stably expressed in CHO cells, [3H]-spiperone competition; assay type: binding; settings: CHO cell membranes, 0.5 nM [3H]-spiperone, 1 hour at 30° C.; read-out: Affinity (pKi) hD2L (converted)
Sequence of human D2L dopaminergic receptor (P14416 whole entry): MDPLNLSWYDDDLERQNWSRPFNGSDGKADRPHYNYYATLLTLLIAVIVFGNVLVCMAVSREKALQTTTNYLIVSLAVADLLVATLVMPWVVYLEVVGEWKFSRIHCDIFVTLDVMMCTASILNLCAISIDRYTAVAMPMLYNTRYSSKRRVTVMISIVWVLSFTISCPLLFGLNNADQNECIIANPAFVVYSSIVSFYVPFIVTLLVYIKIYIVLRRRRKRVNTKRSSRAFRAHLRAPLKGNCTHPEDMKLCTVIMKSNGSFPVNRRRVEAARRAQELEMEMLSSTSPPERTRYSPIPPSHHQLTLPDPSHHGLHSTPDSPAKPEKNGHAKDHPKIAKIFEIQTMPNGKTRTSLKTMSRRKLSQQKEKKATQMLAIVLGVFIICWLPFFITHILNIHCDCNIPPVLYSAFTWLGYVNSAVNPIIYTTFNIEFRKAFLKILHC
Experimental: as §1, §2

[3] = target: human D2S dopaminergic receptor (Homo sapiens, UniProt P14416); assay: Affinity for human D2S receptors stably expressed in CHO cells, [3H]-spiperone competition; assay type: binding; settings: CHO cell membranes, 0.5 nM [3H]-spiperone, 1 hour at 30° C.; read-out: Affinity (pKi) hD2S (converted)
Sequence of human D2S dopaminergic receptor (P14416 1-414 isoform P14416-2): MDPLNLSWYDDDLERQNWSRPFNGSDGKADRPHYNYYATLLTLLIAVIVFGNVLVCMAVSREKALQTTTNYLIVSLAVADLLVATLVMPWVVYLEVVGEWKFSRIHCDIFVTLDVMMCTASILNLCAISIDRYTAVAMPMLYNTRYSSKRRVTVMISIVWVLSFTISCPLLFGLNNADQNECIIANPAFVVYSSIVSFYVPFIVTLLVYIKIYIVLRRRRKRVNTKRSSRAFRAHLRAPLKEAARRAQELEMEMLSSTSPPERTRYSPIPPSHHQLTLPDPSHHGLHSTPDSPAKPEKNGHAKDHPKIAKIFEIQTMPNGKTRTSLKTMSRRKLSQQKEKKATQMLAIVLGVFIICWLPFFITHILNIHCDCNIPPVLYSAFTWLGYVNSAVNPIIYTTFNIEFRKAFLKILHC
Experimental: as §1, §2

D3/D2 receptor = assay: Inhibition of hypothermia induced by the dopaminergic agonist PD128,907; assay type: in vivo, rat; settings: for Δ (° C.) ± S.E.M.s: PD128,907 0.63 mg/kg s.c. at T0, rectal temperature 30 min later vs baseline; for ID50 (Inhibitory Dose50): inhibition of hypothermia induced by PD128,907 0.63 mg/kg s.c.
Experimental: Inhibition of Induction of Hypothermia Induced by the Dopaminergic Agonist PD128,907
In male rats of the Wistar strain, the baseline (rectal) temperature is measured and then the compound under test or the vehicle is administered by the oral route. Sixty minutes later, PD128,907 (0.63 mg/kg, s.c.), a D3/D2 dopaminergic agonist, is injected. Thirty minutes later, the body temperature is re-determined and the difference (Δ) from the baseline temperature is calculated.

[4] = male Wistar rats, compound 0.04 mg/kg p.o. at T-60 min
[5] = male Wistar rats, compound 0.16 mg/kg p.o. at T-60 min
[6] = male Wistar rats, compound 0.63 mg/kg p.o. at T-60 min
[7] = male Wistar rats, compound 2.5 mg/kg p.o. at T-60 min
[8] = male Wistar rats, compound 10.0 mg/kg p.o. at T-60 min

Sequence of human D3 dopaminergic receptor (P35462 whole entry): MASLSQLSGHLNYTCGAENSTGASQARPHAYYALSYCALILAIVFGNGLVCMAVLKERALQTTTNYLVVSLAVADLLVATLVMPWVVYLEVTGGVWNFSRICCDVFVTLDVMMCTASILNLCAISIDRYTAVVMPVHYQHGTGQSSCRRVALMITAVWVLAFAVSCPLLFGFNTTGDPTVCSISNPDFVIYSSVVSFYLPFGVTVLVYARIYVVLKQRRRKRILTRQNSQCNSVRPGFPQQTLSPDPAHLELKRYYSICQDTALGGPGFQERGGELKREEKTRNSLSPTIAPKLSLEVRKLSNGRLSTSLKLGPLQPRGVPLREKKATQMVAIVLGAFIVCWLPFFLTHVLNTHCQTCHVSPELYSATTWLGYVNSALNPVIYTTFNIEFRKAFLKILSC

Row | Ki [1] | Ki [2] | Ki [3] | Compound | Δ (° C.) ± S.E.M.s (D3/D2 receptor; [4]) | Δ (° C.) ± S.E.M.s (D3/D2 receptor; [5]) | Δ (° C.) ± S.E.M.s (D3/D2 receptor; [6]) | Δ (° C.) ± S.E.M.s (D3/D2 receptor; [7]) | Δ (° C.) ± S.E.M.s (D3/D2 receptor; [8]) | ID50 (Inhibitory Dose50) (D3/D2 receptor; male Wistar rats) | Blocking of PD 128,907-induced hypothermia (D3/D2 receptor; male Wistar rats, oral route) | Effect of PD 128,907 on body temperature (D3/D2 receptor; in the presence of the vehicle)
1 | 2 nM | 100 nM | 117 nM | CC(=O)N[C@H]1CC[C@H](CCN2C[C@H]3COc4ccc(C#N)cc4[C@@H]3C2)CC1.Cl [Example 2, N-(trans-4-{2-[(3aS,9bR)-8-cyano-1,3a,4,9b-tetrahydrochromeno[3,4-c]pyrrol-2(3H)-yl]ethyl}cyclohexyl)acetamide hydrochloride] | −1.73 ± 0.26 °C | −1.33 ± 0.11 °C | −0.97 ± 0.28 °C | −0.4 ± 0.13 °C | +0.1 ± 0.33 °C | 1.33 mg/kg, p.o. |  | 
2 | 1.86 nM | 50.1 nM | 56.2 nM | Cl.N#Cc1ccc2c(c1)[C@@H]1CN(CC[C@H]3CC[C@H](NC(=O)C4CCC4)CC3)C[C@H]1CO2 [Example 3, N-(trans-4-{2-[(3aS,9bR)-8-cyano-1,3a,4,9b-tetrahydrochromeno[3,4-c]pyrrol-2(3H)-yl]ethyl}cyclohexyl)cyclobutanecarboxamide hydrochloride] | −1.65 ± 0.09 °C | −1.62 ± 0.07 °C | −0.83 ± 0.20 °C | −0.33 ± 0.16 °C | +0.35 ± 0.18 °C | 0.64 mg/kg, p.o. | blocked in dose-dependent manner | 
3 |  |  |  | CCCN1CCO[C@@H]2c3cc(O)ccc3OC[C@H]21 [PD128,907, reference compound] |  |  |  |  |  |  |  | brings about hypothermia
